{"source": "patent US20240417437A1", "about": "“Linker Polypeptides” (Trutino Biosciences Inc., priority 2021, published 2024)", "key": {"Collagen type I": {"molecular_target": "Collagen type I (Homo sapiens, UniProt P02452+P08123)", "sequence (P02452 162-1218 limits assumed)": "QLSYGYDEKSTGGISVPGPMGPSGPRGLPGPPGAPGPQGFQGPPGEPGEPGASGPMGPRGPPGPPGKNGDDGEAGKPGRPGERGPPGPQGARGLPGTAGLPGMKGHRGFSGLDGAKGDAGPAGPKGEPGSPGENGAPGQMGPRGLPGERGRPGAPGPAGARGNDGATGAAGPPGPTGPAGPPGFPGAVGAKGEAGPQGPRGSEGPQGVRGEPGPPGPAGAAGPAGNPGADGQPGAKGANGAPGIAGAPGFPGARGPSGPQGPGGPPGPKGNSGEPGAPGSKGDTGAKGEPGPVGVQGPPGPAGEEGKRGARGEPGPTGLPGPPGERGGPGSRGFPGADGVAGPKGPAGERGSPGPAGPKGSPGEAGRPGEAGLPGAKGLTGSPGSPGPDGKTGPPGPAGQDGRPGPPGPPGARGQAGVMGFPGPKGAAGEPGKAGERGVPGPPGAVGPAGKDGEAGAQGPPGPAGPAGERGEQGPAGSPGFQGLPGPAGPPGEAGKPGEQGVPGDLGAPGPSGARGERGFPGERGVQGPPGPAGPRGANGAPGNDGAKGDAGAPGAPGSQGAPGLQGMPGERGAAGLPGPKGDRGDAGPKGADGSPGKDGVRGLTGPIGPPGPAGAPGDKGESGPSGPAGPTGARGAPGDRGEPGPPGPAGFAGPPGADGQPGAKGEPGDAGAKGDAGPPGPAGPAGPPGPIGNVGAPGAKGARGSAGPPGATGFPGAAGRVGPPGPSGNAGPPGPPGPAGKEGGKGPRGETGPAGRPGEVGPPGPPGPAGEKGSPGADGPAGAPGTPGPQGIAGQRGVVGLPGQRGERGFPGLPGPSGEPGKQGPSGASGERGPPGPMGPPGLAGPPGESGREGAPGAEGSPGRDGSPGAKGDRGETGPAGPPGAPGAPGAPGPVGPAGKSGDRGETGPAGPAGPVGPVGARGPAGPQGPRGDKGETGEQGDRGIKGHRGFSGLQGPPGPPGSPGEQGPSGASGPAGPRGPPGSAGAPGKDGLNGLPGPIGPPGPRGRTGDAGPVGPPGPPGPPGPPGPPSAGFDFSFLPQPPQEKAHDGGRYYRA", "sequence (P08123 80-1119 limits assumed)": "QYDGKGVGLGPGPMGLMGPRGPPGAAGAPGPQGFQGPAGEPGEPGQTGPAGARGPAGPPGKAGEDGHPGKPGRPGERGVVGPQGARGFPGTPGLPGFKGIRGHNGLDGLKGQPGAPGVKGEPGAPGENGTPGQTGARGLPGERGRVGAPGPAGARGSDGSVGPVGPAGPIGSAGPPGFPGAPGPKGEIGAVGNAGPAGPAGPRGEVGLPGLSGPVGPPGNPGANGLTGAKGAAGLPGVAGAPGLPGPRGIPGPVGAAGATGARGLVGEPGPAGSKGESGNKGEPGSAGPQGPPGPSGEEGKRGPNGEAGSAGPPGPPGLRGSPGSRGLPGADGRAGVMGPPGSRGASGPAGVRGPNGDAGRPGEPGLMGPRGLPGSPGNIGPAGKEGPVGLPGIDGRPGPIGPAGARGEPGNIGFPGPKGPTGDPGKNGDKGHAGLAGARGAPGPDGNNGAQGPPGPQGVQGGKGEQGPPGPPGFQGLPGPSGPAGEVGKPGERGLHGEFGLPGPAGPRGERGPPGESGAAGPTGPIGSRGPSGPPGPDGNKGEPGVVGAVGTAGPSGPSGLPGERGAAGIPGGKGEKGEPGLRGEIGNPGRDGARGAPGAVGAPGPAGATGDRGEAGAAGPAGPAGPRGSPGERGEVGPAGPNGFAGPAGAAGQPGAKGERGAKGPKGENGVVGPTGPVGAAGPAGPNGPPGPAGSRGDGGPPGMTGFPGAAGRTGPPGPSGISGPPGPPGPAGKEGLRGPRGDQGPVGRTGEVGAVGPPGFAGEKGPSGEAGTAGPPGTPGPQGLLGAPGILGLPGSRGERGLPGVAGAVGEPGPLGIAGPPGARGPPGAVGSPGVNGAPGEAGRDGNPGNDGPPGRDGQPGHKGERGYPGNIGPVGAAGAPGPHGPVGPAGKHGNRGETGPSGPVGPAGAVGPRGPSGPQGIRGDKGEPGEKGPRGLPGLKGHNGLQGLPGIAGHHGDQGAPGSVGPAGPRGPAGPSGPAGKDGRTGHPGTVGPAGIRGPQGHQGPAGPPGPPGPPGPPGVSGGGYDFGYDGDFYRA", "conditions": "binds to Collagen type I; Note 1 of Table 2; cited from earlier work"}, "[1]": {"test_system": "Heparan sulfate proteoglycans", "conditions": "DTx protein derived sequences; cited from earlier work"}, "[2]": {"conditions": "pH-sensitive targeting sequences; cited from earlier work"}, "fibronectin [3]": {"molecular_target": "fibronectin (Homo sapiens, UniProt P02751)", "sequence (P02751 32-2477, species assumed)": "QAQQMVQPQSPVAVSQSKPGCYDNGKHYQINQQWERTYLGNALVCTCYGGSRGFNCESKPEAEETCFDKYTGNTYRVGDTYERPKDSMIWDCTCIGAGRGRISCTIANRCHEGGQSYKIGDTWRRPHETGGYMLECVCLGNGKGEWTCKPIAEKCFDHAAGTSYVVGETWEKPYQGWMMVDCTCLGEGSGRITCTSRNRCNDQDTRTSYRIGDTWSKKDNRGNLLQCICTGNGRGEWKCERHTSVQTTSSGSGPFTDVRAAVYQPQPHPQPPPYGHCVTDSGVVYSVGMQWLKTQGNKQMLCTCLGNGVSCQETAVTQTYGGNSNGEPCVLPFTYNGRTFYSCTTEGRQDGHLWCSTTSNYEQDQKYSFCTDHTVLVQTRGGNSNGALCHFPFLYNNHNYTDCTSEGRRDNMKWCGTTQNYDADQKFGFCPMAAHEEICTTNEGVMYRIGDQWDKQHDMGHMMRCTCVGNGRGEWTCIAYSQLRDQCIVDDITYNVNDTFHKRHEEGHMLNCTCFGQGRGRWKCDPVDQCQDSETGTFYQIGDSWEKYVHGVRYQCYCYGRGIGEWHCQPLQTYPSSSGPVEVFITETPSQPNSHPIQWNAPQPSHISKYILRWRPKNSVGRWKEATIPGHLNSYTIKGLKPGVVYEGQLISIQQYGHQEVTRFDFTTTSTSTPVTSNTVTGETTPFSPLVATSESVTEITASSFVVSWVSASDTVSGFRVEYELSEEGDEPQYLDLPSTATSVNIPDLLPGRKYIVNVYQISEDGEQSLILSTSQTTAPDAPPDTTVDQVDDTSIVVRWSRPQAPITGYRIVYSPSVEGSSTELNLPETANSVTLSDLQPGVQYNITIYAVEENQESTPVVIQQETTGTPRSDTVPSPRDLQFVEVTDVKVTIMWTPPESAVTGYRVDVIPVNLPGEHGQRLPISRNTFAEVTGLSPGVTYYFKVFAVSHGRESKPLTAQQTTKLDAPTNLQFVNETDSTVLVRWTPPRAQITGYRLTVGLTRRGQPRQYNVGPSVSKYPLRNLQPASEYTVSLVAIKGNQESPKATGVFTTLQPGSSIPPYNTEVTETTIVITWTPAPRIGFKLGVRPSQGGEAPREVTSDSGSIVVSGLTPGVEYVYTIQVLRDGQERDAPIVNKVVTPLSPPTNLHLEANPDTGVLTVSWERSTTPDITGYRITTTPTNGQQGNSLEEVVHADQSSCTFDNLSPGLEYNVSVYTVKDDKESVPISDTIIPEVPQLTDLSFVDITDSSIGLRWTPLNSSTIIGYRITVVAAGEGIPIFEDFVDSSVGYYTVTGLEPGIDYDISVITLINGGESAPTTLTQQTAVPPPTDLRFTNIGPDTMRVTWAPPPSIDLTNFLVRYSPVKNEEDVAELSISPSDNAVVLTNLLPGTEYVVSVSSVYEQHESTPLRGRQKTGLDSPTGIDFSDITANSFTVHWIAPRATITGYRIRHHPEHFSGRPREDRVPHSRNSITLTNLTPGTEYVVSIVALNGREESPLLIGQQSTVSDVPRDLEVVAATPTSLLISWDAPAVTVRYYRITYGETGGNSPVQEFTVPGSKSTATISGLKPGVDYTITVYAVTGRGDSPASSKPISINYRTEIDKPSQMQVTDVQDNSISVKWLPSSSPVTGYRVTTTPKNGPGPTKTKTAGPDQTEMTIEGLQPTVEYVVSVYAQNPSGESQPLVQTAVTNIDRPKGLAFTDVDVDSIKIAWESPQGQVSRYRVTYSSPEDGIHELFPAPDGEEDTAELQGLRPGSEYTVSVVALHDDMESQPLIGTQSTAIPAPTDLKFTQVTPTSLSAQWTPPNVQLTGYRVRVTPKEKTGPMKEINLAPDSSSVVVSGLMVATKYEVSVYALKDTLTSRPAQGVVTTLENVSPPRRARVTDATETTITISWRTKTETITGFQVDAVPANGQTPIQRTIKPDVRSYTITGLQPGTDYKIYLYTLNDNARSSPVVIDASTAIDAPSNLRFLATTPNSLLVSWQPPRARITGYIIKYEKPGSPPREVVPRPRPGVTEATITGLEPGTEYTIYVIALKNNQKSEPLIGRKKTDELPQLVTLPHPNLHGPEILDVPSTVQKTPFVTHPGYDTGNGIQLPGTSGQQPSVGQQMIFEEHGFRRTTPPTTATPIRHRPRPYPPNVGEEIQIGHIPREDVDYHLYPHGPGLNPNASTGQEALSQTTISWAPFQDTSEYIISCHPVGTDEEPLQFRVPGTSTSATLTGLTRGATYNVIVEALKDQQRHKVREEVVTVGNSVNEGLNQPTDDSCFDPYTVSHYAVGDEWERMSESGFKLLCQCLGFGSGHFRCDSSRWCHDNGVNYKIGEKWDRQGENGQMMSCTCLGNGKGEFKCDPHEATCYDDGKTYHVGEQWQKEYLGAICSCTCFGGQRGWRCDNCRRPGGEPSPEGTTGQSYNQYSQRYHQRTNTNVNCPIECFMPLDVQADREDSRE", "conditions": "derived from thrombospondin, cited from earlier work; for Note 1: affinity (binds to Fibronectin): pH-sensitive targeting sequences"}, "[4]": {"test_system": "MC38 colorectal cancer cells", "assay": "MC38 colorectal cancer tumor growth inhibition study", "format": "in vivo, C57BL/6 mice", "conditions": "low dose (1 mg/kg IP BIW)", "experimental": "C57BL/6 mice were subcutaneously inoculated with MC38 colorectal cancer cells. When the average tumor volume reached 70-90 mm^3, animals were randomized into 10 groups based on tumor volumes (n 7 or 6 mice per treatment group).\nTumor volumes were measured twice a week for the duration of the study."}, "[5]": {"format": "binding", "conditions": "compared with IL-15Rα-IL-15 fusion protein", "experimental": "96-well plates were coated with 10 μg/mL of Heparin-BSA conjugate (provided by Dr. Mueller, Boerhinger Ingelheim) or control BSA for 18-22 hours at room temperature on shaker (350 rpm). After washing, wells are blocked with 2% milk powder in PBS-0.05% Tween 20 or PBS-0.05% Tween 20/1% BSA for 90 minutes. The fusion proteins were then titrated in either 2% milk powder in PBS-0.05% Tween 20 or 1% BSA/PBS-0.05% Tween 20, pH 7.5 and/or pH 6, and added for 2 hours at room temperature with shaking. After washing, an anti-mouse IL-2 biotin-labelled detection antibody (JES6-5H4, ThermoFisher), anti-6×-His Tag HRP conjugate antibody (Invitrogen, 1 mg/mL, cat #MA1-21315-HRP), or anti-human IgG HRP conjugate antibody (SouthernBiotech) was added, and binding was detected using Ultra Streptavidin HRP (ThermoFisher). The plate was developed by adding the chromogenic tetramethylbenzidine substrate (Ultra TMB, ThermoFisher). The reaction was stopped by addition of 0.5 M H2SO4, and the absorbance was read at 450-650 nm. […] Moreover, when the same pH-dependent heparin binding motif was inserted into different locations of IL-2 fusion proteins, all resulting proteins bound heparin at pH 6 with similar high affinities (FIGS. 4F and 4G). Likewise, similar binding affinities were observed when another heparin targeting sequence was engineered into different sites of IL-2 fusion proteins (FIGS. 4H-4I). […]"}, "fibronectin [6]": {"test_system": "fibronectin", "assay": "EDANS linker peptide binding to fibronectin-coated magnetic beads", "conditions": "peptides 20 μM", "experimental": "(§1) A series of peptides comprising an MMP cleavable site with or without the addition of a targeting sequence were synthesized and conjugated to the fluorophore EDANS (5-((2-Aminoethyl)amino)naphthalene-1-sulfonic acid) (custom synthesis, ThermoFisher). […] These peptides were then tested for their ability to bind ECM proteins such as heparin, fibronectin and collagen which are found in abundance in tumor stroma.\n(§2) For fibronectin and collagen binding peptide assays, streptavidin coupled magnetic beads (Mag Sepharose, Cytiva and Dynabeads, ThermoFisher, respectively) were first incubated with biotin-labelled fibronectin (Cytoskeleton) or biotin-labelled collagen IV (Prospec) for 1 hour with gentle shaking. Following multiple washes, the ECM-coated beads were then incubated with Edans Peptides (20 μM) for 2 hours at room temperature with shaking in neutral or acidic binding buffer. Beads were then washed and resuspended in 100 μL of binding buffer in a black 96-well plate. Peptide binding was quantified by measuring the fluorescence of samples using excitation/emission spectra of EDANS (Ex 340/Em 490)."}, "collagen IV": {"molecular_target": "T1, collagen IV (Homo sapiens, UniProt P02462+P08572)", "T1 construct": "purchased Prospec", "assay": "EDANS linker peptide binding to collagen IV-coated magnetic beads", "conditions": "peptides 20 μM, 2 hours", "experimental": "as §1, §2"}}, "note": "Where no end group is shown, it is not given here. The star is where a group is joined. EDANS = O=S(=O)(O)c1cccc2c(NCCN*)cccc12", "data": [{"substance": "189 (RRANAALKAGELYKSILYGC; Synthetic: Collagen type I) [Construct 189]", "values": [{"measurement": "Kd", "setting": "Collagen type I", "value": 860, "unit": "nM"}]}, {"substance": "190 (RRANAALKAGELYKCILYGC; Synthetic: Collagen type I) [Construct 190]", "values": [{"measurement": "Kd", "setting": "Collagen type I", "value": 10, "unit": "nM"}]}, {"substance": "191 (MIVIELGTNPLKSSGIENGAFQGMKK; Synthetic: Collagen type I) [Construct 191]", "values": [{"measurement": "Kd", "setting": "Collagen type I", "value": 394, "unit": "nM"}]}, {"substance": "192 (LRELHLNNN; Synthetic: Collagen type I) [Construct 192]", "values": [{"measurement": "Kd", "setting": "Collagen type I", "value": 170, "unit": "nM"}]}, {"substance": "194 (TKKTLRT; Synthetic: Collagen type I) [Construct 194]", "values": [{"measurement": "Kd", "setting": "Collagen type I", "value": "≤ 100000", "unit": "nM"}]}, {"substance": "195 (CPKESCNLFVLKD; Synthetic: Collagen type I) [Construct 195]", "values": [{"measurement": "Kd", "setting": "Collagen type I", "value": 681, "unit": "nM"}]}, {"substance": "197 (HVWMQAPGGGK; Synthetic: Collagen type I, H-v-F/W-Q/ M-Q-P/A-P/K motif) [Construct 197]", "values": [{"measurement": "Kd", "setting": "Collagen type I", "value": 61000, "unit": "nM"}]}, {"substance": "639 (NGRKIRMRCRAIDGD; Synthetic: Heparan sulfate proteoglycans ; binds to HSGP with high affinity (DTx protein)) [Construct 639]", "values": [{"measurement": "Note 1: binds to HSGP, affinity", "setting": "[1]", "value": "binds to HSGP with high affinity (DTx protein)"}]}, {"substance": "640 (DVIRDKTKTKIESLK; Synthetic: Heparan sulfate proteoglycans ; binds to HSGP with low affinity (DTx protein)) [Construct 640]", "values": [{"measurement": "Note 1: binds to HSGP, affinity", "setting": "[1]", "value": "binds to HSGP with low affinity (DTx protein)"}]}, {"substance": "642 (KHAHLKKQVSDHIAVY; Synthetic: Heparin; binds to heparin at low pH (high affinity)) [Construct 642]", "values": [{"measurement": "Note 1: binds to heparin at low pH (affinity)", "setting": "[2]", "value": "binds to heparin at low pH (high affinity)"}]}, {"substance": "643 (TTEPSEEHNHHK; Synthetic: Heparin; binds to heparin at low pH (low affinity)) [Construct 643]", "values": [{"measurement": "Note 1: binds to heparin at low pH (affinity)", "setting": "[2]", "value": "binds to heparin at low pH (low affinity)"}]}, {"substance": "644 (KHAHL; Synthetic: Heparin; binds to heparin at low pH (lower affinity)) [Construct 644]", "values": [{"measurement": "Note 1: binds to heparin at low pH (affinity)", "setting": "[2]", "value": "binds to heparin at low pH (lower affinity)"}]}, {"substance": "645 (TTEPSEEHNHHK; Synthetic: Heparin; binds to heparin at low pH (lower affinity)) [Construct 645]", "values": [{"measurement": "Note 1: binds to heparin at low pH (affinity)", "setting": "[2]", "value": "binds to heparin at low pH (lower affinity)"}]}, {"substance": "646 (TTEPSEEHNHHKHHDK; Synthetic: Heparin; binds to heparin at low pH (lower affinity)) [Construct 646]", "values": [{"measurement": "Note 1: binds to heparin at low pH (affinity)", "setting": "[2]", "value": "binds to heparin at low pH (lower affinity)"}]}, {"substance": "647 (HKGQHR; Synthetic: Heparin; binds to heparin at low pH (lower affinity)) [Construct 647]", "values": [{"measurement": "Note 1: binds to heparin at low pH (affinity)", "setting": "[2]", "value": "binds to heparin at low pH (lower affinity)"}]}, {"substance": "648 (KVEHRVKKRPPTWRHNVRAKYT; Synthetic: Heparin; binds to heparin at low pH) [Construct 648]", "values": [{"measurement": "Note 1: binds to heparin at low pH (affinity)", "setting": "[2]", "value": "binds to heparin at low pH"}]}, {"substance": "649 (GGKVEHRVKKRPPTWRHNVRAKYT; Synthetic: Heparin; binds to heparin at low pH) [Construct 649]", "values": [{"measurement": "Note 1: binds to heparin at low pH (affinity)", "setting": "[2]", "value": "binds to heparin at low pH"}]}, {"substance": "650 (KKRPPTWRHNV; Synthetic: Heparin; binds to heparin at low pH) [Construct 650]", "values": [{"measurement": "Note 1: binds to heparin at low pH (affinity)", "setting": "[2]", "value": "binds to heparin at low pH"}]}, {"substance": "653 (GGWSHW; Synthetic: Fibronectin; derived from thrombospondin (highest affinity)) [Construct 653]", "values": [{"measurement": "Note 2: pH dependence of binding to Fibronectin", "setting": "fibronectin [3]", "value": "binds better at lower pH"}, {"measurement": "Note 1: affinity (binds to Fibronectin)", "setting": "fibronectin [3]", "value": "(highest affinity)"}]}, {"substance": "655 (KRFKQDGGWSHWSP; Synthetic: Fibronectin; derived from thrombospondin (medium affinity)) [Construct 655]", "values": [{"measurement": "Note 1: affinity (binds to Fibronectin)", "setting": "fibronectin [3]", "value": "derived from thrombospondin (medium affinity)"}]}, {"substance": "656 (GGWSHWSPWSS; Synthetic: Fibronectin; derived from thrombospondin (medium affinity)) [Construct 656]", "values": [{"measurement": "Note 1: affinity (binds to Fibronectin)", "setting": "fibronectin [3]", "value": "derived from thrombospondin (medium affinity)"}]}, {"substance": "Construct NNN: huIL2(C125S)-SGGKLWVLPK-MMPcs1-2x(G4S)-huIL2Ra(1-219;M25I)-GSGGGG-huIgG1(LALA); col IV", "values": [{"measurement": "efficacy (TGI) in low dose treatment groups", "setting": "[4]", "value": "superior efficacy over parental non-targeting constructs"}]}, {"substance": "Construct VVV: huIL15Ra(1-77)-linker-huIL15-(SG3)-GPLGVRG-4x(G4S)-IL2Rb(1-214)-6xHis; no TME", "values": [{"measurement": "heparin binding of IL-15 linker polypeptide fusion proteins", "setting": "[5]", "value": "lost"}]}, {"substance": "Construct WWW: huIL15Ra(1-77)-linker-huIL15-(SG3)-GPLGVRG-gsVRIQRKKEKMKET-3x(G4S)-IL2Rb(1-214)-6xHis", "values": [{"measurement": "heparin binding of IL-15 linker polypeptide fusion proteins", "setting": "[5]", "value": "recovered"}]}, {"substance": "peptide 13: EDANS-conjugated GGGWSHWGPLGVRG-* (SEQ ID NO: 671); pH dependent fibronectin (GGGWSHWGPLGVRG-{EDANS})", "values": [{"measurement": "peptide binding to fibronectin at pH 6 vs. pH 7.5", "setting": "fibronectin [6]", "value": "enhanced binding at pH 6"}, {"measurement": "peptide binding to fibronectin (EDANS fluorescence)", "setting": "fibronectin [6]; 2 hours", "value": "able to bind fibronectin"}]}, {"substance": "peptide 14: EDANS-conjugated KLWVLPKGPLGVRG-* (SEQ ID NO: 672); Collagen IV (KLWVLPKGPLGVRG-{EDANS})", "values": [{"measurement": "peptide binding to collagen IV (EDANS fluorescence)", "setting": "collagen IV", "value": "strongly bound"}]}, {"substance": "peptide 15: EDANS-conjugated GGGSGLHERHLNNN-* (SEQ ID NO: 673); Collagen I (GGGSGLHERHLNNN-{EDANS})", "values": [{"measurement": "peptide binding to collagen IV (EDANS fluorescence)", "setting": "collagen IV", "value": "bound to a lesser extent"}]}]}
